Values of other authors in patent publication US5008416A, “Organogermanium compound, process for the preparation of same as well as use thereof” (Sanwa Kagaku Kenkyusho Co., Ltd., priority 1989, dated 1991).

Legend:
[1] = Jap. Pat. No. Sho 61-151123(A), U.S. Pat. No. 4,889,715, EP 0186505; cited from earlier work
[2] = Cancer Res., Vol. 42, page 2852 (1982); cited from earlier work

Molecule	Immunomodulating activity (result in words) [1]	Anti-cancer or antitumor activity (result in words) [2]
3-oxygermylpropionic acid polymer	shows an excellent immunomodulating activity	
C[CH2][Ge]1([CH2]C)[CH2]CC2(CCN(CCCN(C)C)C2)C[CH2]1 [Spirogermanium]		shows an anti-cancer or antitumor activity
